Holding throughout (assay): NCI tumour cell line growth inhibition, 48 h
Test [1] deals with DU-145 prostate.
The subject of test [2] is MDA-MB-435.
In test [3] the test system is MDA-N.

Values joined by “and” are separate entries in the source; they are usually repeats but may differ in a detail not shown here. Equal entries are not always repeated.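 Method: 48-hour compound exposure of cells in 96-well plates, five concentrations, linear interpolation of endpoints. GI50 = concentration required for 50% inhibition of growth. Definition used: TGI = concentration required for complete inhibition of growth.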 Some results are limits rather than exact numbers.

`COc1cccc2c1c1nc3cc(C)c(C)cc3nc1n2CCN(C)C`: in test [1], the GI50 is 3.01 µM and the TGI is 12.1 µM. In test [2], the GI50 is 1.83 µM and the TGI was 4.14 µM.
As for `C/C(=C\c1c[nH]c2ccccc12)[N+](=O)[O-]`, the GI50 in test [1] is 3.73 µM; in test [2] it was 5.56 µM. For the same compound, the TGI in test [1] is 15.5 µM; in test [2], 20.1 µM.
On the same counts, the results for `CCCC(=O)NNc1[nH]c(-c2ccc(OC)cc2)cc1C(=O)OCC` are 21.7 µM, 15.6 µM, 45.6 µM and 31.6 µM.
On the same counts, the results for `COc1cc(-c2nc3ccccc3s2)ccc1OCc1nc2n(n1)S(=O)(=O)c1ccccc1N2C` are over 100 µM, over 100 µM, over 100 µM and over 100 µM.
For `CN(CCC(=O)O)S(=O)(=O)c1ccccc1`, the TGI in test [1], in test [2] and in test [3] was over 100 µM in each case.
On to `C/C(=C\c1ccn(-c2ccc(N)cc2)n1)[C@@H]1C[C@@H]2O[C@]2(C)CCC[C@H](C)[C@H](O)[C@@H](C)C(=O)C(C)(C)[C@@H](O)CC(=O)O1`, for which, in test [1], the GI50 was 0.0314 µM and the TGI amounted to 0.577 µM.
In the case of `CC(C)=CCC/C(C)=C/CC/C(=C/COP(=O)(OCc1ccc([N+](=O)[O-])o1)N(C)CCCCCl)C(C)(C)C` (stereo unspecified), the GI50 in test [1] is 1.61 µM; in test [2] it was 10.1 µM. For the same compound, the TGI in test [1] turned out to be 9 µM; in test [2], 30.8 µM.
On the same counts, the results for `Cn1cnc2c(NCc3ccccc3)nc(NCCO)nc21` are 125 µM, 114 µM, over 500 µM and 313 µM.
On the same counts, the results for `Cc1ccc(C(=O)NC2CCCCC2)cc1-c1ccc(C(=O)NCC2CC2)cc1` are over 25 µM, over 25 µM, over 25 µM and over 25 µM.
On the same counts, the results for `CO[C@H]1CC[C@@]2(C)C(=CC[C@H]3[C@@H]4C[C@H](O)C[C@@]4(C)CC[C@@H]32)C1` are 4.37 µM, 1.26 µM, 15.2 µM and 6.89 µM.
For `Cc1ccc(NC(=O)c2ccnc(N3CCCC3)c2)cc1-c1ccc(C(=O)NCC2CC2)cc1`, in test [1], the GI50 was over 25 µM and the TGI was over 25 µM. In addition, in test [2], the GI50 was over 25 µM and the TGI was over 25 µM.
`NC(=O)Oc1cc(OC(N)=O)cc(N(CCCl)CCCl)c1`: in test [1], the GI50 was 3.06 µM and the TGI turned out to be 51.2 µM. For the same compound, in test [2], the GI50 was 11.4 µM and the TGI is 28.9 µM.
`O=C1C=CC2(C=C1)CCN=c1c(O)c3c(c(O)c12)=NC=N3`: in test [1], the GI50 is 14.7 µM and > 100 µM; the TGI is 28 µM and > 100 µM.
For the compound `COC1CC2CCC(C)[C@](O)(O2)C(=O)C(=O)N2CCCCC2C(=O)OC(C(C)CC2CCC(O)C(OC)C2)CC(=O)C(C)C=C(C)C(OC(=O)CN(C)C)C(OC)C(=O)C(C)CC(C)/C=C/C=C/C=C\1C` (stereo partly specified), the TGI in test [1] came out at 14.5 µM; in test [2] it was 19.2 µM.
Turning to `O=C(/C=C\Sc1nccc(C(F)(F)F)n1)c1ccc(Br)cc1`, in test [1], the GI50 is 17.6 µM and the TGI was 47.9 µM. In test [2], the GI50 is 26.2 µM and the TGI was determined as 78 µM.
On the same counts, the results for `Cn1cc(C2=C(c3c4n(c5ccccc35)CCC(CN)CC4)C(=O)NC2=O)c2ccccc21` (stereo unspecified) are 4.55 µM, 8.21 µM, 3.35 µM and 6.76 µM.
On the same counts, the results for `O=C1/C(=C/c2ccc(Cl)cc2)CN(C(=O)C(Cl)Cl)C/C1=C\c1ccc(Cl)cc1` are 0.357 µM, 1.31 µM, 0.194 µM and 0.396 µM.
As for `O=C(O)CC1(C(=O)O)CCCCC1`, the TGI in test [1], in test [2] and in test [3] was over 100 µM each time.
`COC(=O)c1c2c(c(C)[n+]([O-])c1C)C(=O)C(NCc1ccc(F)c(F)c1)=CC2=O`: in test [1], the GI50 is 2.66 µM and the TGI came to 7.61 µM. Moreover, in test [2], the GI50 was 1.7 µM and the TGI is 3.15 µM.
Consider `CCN(CC)CCOc1cc2c(C(=O)OC)c(C)oc2cc1C(C)=O`, for which, in test [2], the GI50 is 16.1 µM and the TGI was determined as 33.9 µM.
Regarding `CC(=O)OCC1OC(S[As](C)C)C(OC(C)=O)C1OC(C)=O` (stereo unspecified), the GI50 in test [1] is 0.217 µM; in test [2], 0.0672 µM. The TGI in test [1] was 0.836 µM; in test [2], 0.301 µM.
On to `O=C(O)c1cccc(CC(Br)C(=O)O)c1` (stereo unspecified), for which the TGI in test [1], in test [2] and in test [3] was over 100 µM throughout.
On to `CC(C)(O)[C@H]1[C@@H]2OC(=O)[C@H]1[C@]1(O)C[C@H]3OC34C(=O)O[C@H]2[C@@]41C` (stereo partly specified) (tested in a mixture with another compound), for which the TGI in test [1], in test [2] and in test [3] was over 100 µM in each case.
For `COC(=O)C#Cc1ccc([N+](=O)[O-])cc1`, the results for the TGI in test [1], in test [2] and in test [3] were 3.57 µM, 5.57 µM and 8.27 µM, respectively.
Consider `Cc1cccc(N=C2c3cc([N+](=O)[O-])ccc3-c3c2cc([N+](=O)[O-])cc3[N+](=O)[O-])c1`, for which, in test [1], the GI50 is 3.24 µM and the TGI was found to be 11 µM. Further, in test [2], the GI50 was 3.49 µM and the TGI stood at 10.8 µM.
Consider `O=C(O)CCC1CCC(c2cc(F)ccc2F)(S(=O)(=O)c2ccc(Cl)cc2)CC1` (stereo unspecified), for which, in test [1], the GI50 is 93.4 µM and > 100 µM; the TGI was over 100 µM. In test [2], the GI50 is 14.5 µM and 26.5 µM; the TGI is 31.2 µM and > 92.7 µM.

The values are drawn from PubChem BioAssay (NCI).
